The source made the active and inactive calls. The rule behind the calls is not given here.

Broadly, the EC50 is the concentration giving half of the maximal effect.

The target in the test is Sphingosine 1-phosphate receptor 1 (Homo sapiens) (UniProt P21453). The test can be described thus: S1P1 receptor activation, potency – cell-based, fluorescence, late-stage, counter-screen for S1PR3 antagonist project, dose response (AID 743426). The note with it: S1P1-expressing cells, agonist counterscreen.
Sphingosine 1-phosphate receptor 1 (Homo sapiens), sequence (P21453 whole entry, looked up): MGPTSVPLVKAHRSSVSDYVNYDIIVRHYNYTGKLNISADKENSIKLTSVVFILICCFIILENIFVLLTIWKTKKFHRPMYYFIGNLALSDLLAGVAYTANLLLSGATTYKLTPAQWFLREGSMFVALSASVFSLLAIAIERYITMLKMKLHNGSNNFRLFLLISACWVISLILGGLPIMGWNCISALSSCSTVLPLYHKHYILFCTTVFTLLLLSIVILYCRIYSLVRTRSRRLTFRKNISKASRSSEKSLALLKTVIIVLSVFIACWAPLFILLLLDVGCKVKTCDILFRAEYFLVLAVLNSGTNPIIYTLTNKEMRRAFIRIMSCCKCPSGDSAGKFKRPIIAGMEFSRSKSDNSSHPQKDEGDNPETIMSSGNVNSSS
As to `O=C(NC(c1ccc(Cl)c(Cl)c1)c1nc(-c2ccccc2)no1)c1ccc(Cl)c(Cl)c1` (configuration not stated), the EC50 was > 50 µM (inactive).

With `O=C(NC(c1ccc(Br)cc1)c1nc(-c2ccccc2)no1)c1ccc(Cl)c(Cl)c1` (configuration not stated), the EC50 was > 50 µM (inactive). Under `O=C(NC(c1nc(-c2ccccc2)no1)C1CCOCC1)c1ccc(Cl)c(Cl)c1` (configuration not stated) stands > 50 µM (inactive); under `O=C(NC(c1cccc(Cl)c1)c1nc(-c2ccccc2)no1)c1cc(Cl)cc(Cl)c1` (configuration not stated), > 50 µM (inactive).

Turning to `Cc1ccc(C(NC(=O)c2cccc(Cl)c2)c2nc(-c3ccccc3)no2)cc1` (configuration not stated), the EC50 is > 50 µM (inactive).

`O=C(NC(c1ccc(Cl)c(Cl)c1)c1nc(-c2ccccc2)no1)c1ccccc1` (configuration not stated): the EC50 is > 50 µM (inactive). In the case of `O=C(NC(c1ccc(Cl)cc1)c1nc(-c2ccccn2)no1)c1cccc(Cl)c1` (configuration not stated) it was > 50 µM (inactive); in that of `O=C(NC(c1ccccc1)c1nc(-c2ccccc2)no1)c1cccc(Br)c1` (configuration not stated), “inactive”; in that of `O=C(NC(c1ccc(Cl)cc1)c1nc(-c2ccccc2)no1)c1ccc(Cl)c(Br)c1` (configuration not stated), > 50 µM (inactive). Under `O=C(NC(c1ccccc1)c1nc(-c2ccccc2)no1)c1cccc(Cl)n1` (configuration not stated) stands “inactive”; under `O=C(NC(c1ccc(Cl)c(Cl)c1)c1nc(-c2ccccc2)no1)c1ccc(Cl)cc1` (configuration not stated), > 50 µM (inactive). In the case of `O=C(c1cccc(Cl)c1)N(CCO)C(c1ccc(Cl)c(Cl)c1)c1nc(-c2ccccc2)no1` (configuration not stated) it was “inactive”; in that of `O=C(NC(c1ccc(Cl)cc1)c1nc(-c2ccccc2)no1)c1cccc(Br)c1` (configuration not stated), > 50 µM (inactive); in that of `O=C(NC(c1ccccc1)c1nc(-c2ccccc2)no1)c1cccc(Cl)c1` (configuration not stated), > 50 µM (inactive).

On to `COc1ccc(C(=O)NC(c2ccccc2)c2nc(-c3ccccc3)no2)cc1` (configuration not stated), for which the EC50 is > 50 µM (inactive). On to `O=C(NC(c1nc(-c2ccccc2)no1)C1CCCCC1)c1ccc(Cl)c(Cl)c1` (configuration not stated), for which the EC50 is > 50 µM (inactive). In the case of `O=C(NC(c1ccc(Cl)cc1)c1nc(-c2cccc(Cl)c2)no1)c1cccc(Cl)c1` (configuration not stated) it was > 50 µM (inactive); in that of `O=C(NC(c1cccc(Cl)c1)c1nc(-c2ccccc2)no1)c1cccc(Cl)c1` (configuration not stated), > 50 µM (inactive).

In the case of `CCc1ccc(C(NC(=O)c2cccc(Cl)c2)c2nc(-c3ccccc3)no2)cc1` (configuration not stated), the EC50 was > 50 µM (inactive). Under `O=C(NC(c1ccc(Cl)cc1)c1nc(-c2ccccc2)no1)c1ccc(Cl)c(Cl)c1` (configuration not stated) stands > 50 µM (inactive); under `O=C(NC(c1ccccc1)c1nc(-c2ccccc2)no1)c1ccc(Cl)cc1` (configuration not stated), > 50 µM (inactive); under `N#Cc1ccc(C(=O)NC(c2ccc(Cl)c(Cl)c2)c2nc(-c3ccccc3)no2)cc1` (configuration not stated), > 50 µM (inactive). In the case of `Cc1ccc(C(=O)NC(c2ccccc2)c2nc(-c3ccccc3)no2)cc1` (configuration not stated) it was > 50 µM (inactive); in that of `O=C(NC(Cc1ccccc1)c1nc(-c2ccccc2)no1)c1cccc(Cl)c1` (configuration not stated), “inactive”. Take `O=C(NC(c1ccc(Cl)c(Cl)c1)c1nc(-c2ccccc2)no1)c1cccc(Cl)c1` (configuration not stated): the EC50 is > 50 µM (inactive).

On to `O=C(NC(c1ccc(Cl)cc1)c1nc(-c2ccccc2)no1)c1cccc(Cl)c1` (configuration not stated), for which the EC50 is > 50 µM (inactive). Under `O=C(NC(c1cccc(Cl)c1)c1nc(-c2ccccc2)no1)c1ccc(Cl)c(Cl)c1` (configuration not stated) stands > 50 µM (inactive).

The values are drawn from PubChem BioAssay AID743426 (The Scripps Research Institute Molecular Screening Center, 2014).
